{"source": "patent US11325892B2", "about": "“Compounds and methods for treating cancer” (Mayo Foundation for Medical Education and Research, priority 2014, dated 2022)", "key": {"[1]": {"system": "HK2, a transformed renal epithelial cell line", "assay": "High-throughput proliferative screen, non-cancerous cells", "format": "cell-based", "experimental": "Cells were seeded at 5,000 cells/well in clear-bottom 96-well plates in triplicate in Maintenance Media. Drug treatment was applied at a concentration of 1:1000 in reduced serum (3%) Maintenance Media. After 72 hours, cells were washed with PBS, and stored at −80° C. prior to analysis using CyQuant® Proliferation Analysis Kit (Invitrogen) as per manufacturers' protocol for relative fluorescence units. Alternatively, cells were plated 2×10^5/well in 12-well plates (Midwest Scientific) in triplicate prior to drug treatment. After 120 hour treatment, cell number was established using a Coulter Particle Counter (Beckman). Or, cells were plated (0.5 or 1×10^5/well) in 24-well plates (Midwest Scientific), 3×. After 72 hour treatment, cell number established using Coulter Particle Counter (Beckman). Oleic acid-albumin (Sigma Aldrich) was added to media at 5 μM, and was applied adjuvant to drug treatment. Drug stocks were prepared in DMSO (Sigma) at 1000×. EC50 dosing per cell line was calculated using CalcuSyn® analytical software.\nIn order to identify potential SCD1 inhibitors, a high-throughput proliferative-based screening method was used, with four ccRCC cell lines including A498, ACHN, Caki1, and Caki2. The SCD1 inhibitor MF-438 was included as a positive control. Known compounds ChemBL375265 (Liu G, Lynch J K, Freeman J, et al. Discovery of potent, selective, orally bioavailable stearoyl-CoA desaturase 1 inhibitors. Journal of medicinal chemistry. Jun. 28, 2007; 50(13): 3086-3100) (SetA.100) and SAR707 (Voss M D, Zoller G, Matter H, et al. Discovery and pharmacological characterization of SAR707 as novel and selective small molecule inhibitor of stearoyl-CoA desaturase (SCD1). European journal of pharmacology. May 5, 2013; 707(1-3): 140-146) (TC03.100) were included as single-blinded positive controls, and are indicated with an asterisk (*). […]"}, "[2]": {"system": "PARP cleavage, CHOP, s-XBP1, HERPUD1 in ATC cells", "assay": "PARP cleavage and UPR protein expression in ATC cells", "format": "cell-based", "conditions": "EC50 dose for 72H; all three ATC cells; abrogated with OA", "experimental": "Protein extraction and western blot analysis was performed as previously described (Copland J A, Marlow L A, Kurakata S, et al. Novel high-affinity PPARgamma agonist alone and in combination with paclitaxel inhibits human anaplastic thyroid carcinoma tumor growth via p21WAF1/CIP1. Oncogene. Apr 13 2006; 25(16):2304-2317). Primary antibodies included SCD1 (Sigma-Aldrich, #HPA012107), BiP (Cell Signaling, #3183), CHOP (Cell Signaling, #2895), sXBP1(Santa Cruz Biotechnology, #sc-7160), PARP(Cell Signaling, #9542), and β-actin (Sigma-Aldrich, #A5441).\nCells were plated in 4-chamber slides (Thermo Scientific) prior to drug treatment. […]\nExogenous application of MUFAs, such as oleic or palmitoleic acid, can rescue the proliferative defects generated by SCD1 inhibition as these are the primary products of SCD1 enzymatic activity (Roongta U V, Pabalan J G, Wang X, Ryseck R P, Fargnoli J, Henley B J, Yang W P, Zhu J, Madireddi M T, Lawrence R M, Wong T W, Rupnow B A. Cancer cell dependence on unsaturated fatty acids implicates stearoyl-CoA desaturase as a target for cancer therapy. Mol Cancer Res. 2011; 9(11):1551-61). […] Transcriptional upregulation of UPR markers including GADD45a (Growth arrest and DNA damage inducible transcript 1, DDIT1), DDIT3 (DNA damage inducible transcript 3, CHOP), and HERPUD1 homocysteine-inducible, ER stress inducible, ubiquitin-like-1) were evaluated by QPCR."}}}
{"smiles": "Cc1nnc(-c2ccc(N3CCC(Oc4ccccc4C(F)(F)F)CC3)nn2)s1", "note": "[MF-438, 2-methyl-5-(6-(4-(2-(trifluoromethyl)phenoxy)piperidin-1-yl)pyridazin-3-yl)-1,3,4-thiadiazole]", "values": [{"measurement": "reduction in cell proliferation", "setting": "[1]", "value": "approximately 20%"}]}
{"smiles": "CNC(=O)c1cccc(NC(=O)N2CCC(Oc3ccccc3Cl)CC2)c1", "note": "[A939572]", "values": [{"measurement": "apoptosis as evaluated by PARP cleavage", "setting": "[2]", "value": "induced apoptosis"}]}
